Where two headings read alike, the source gives them in different places.

Experimental findings from patent US7713994B2 (Wyeth LLC, priority 2005, dated 2010) are described below.

One series concerns the target T1, cyclin D1/cdk 4 enzyme (Homo sapiens, UniProt P11802).
T1 construct: made in house; host or cells: Sf9 insect cells, recombinant baculovirus
The experiment in a line: CDK4 ELISA kinase assay (phospho-Rb ser 795 detection). To be noted: 200 μM ATP. Format: biochemical. Summed up: (§1)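 ELISA format: plate-bound GST-Rb, 200 μM ATP, Sf9 cyclin/CDK enzyme, 1 h at 30° C; then anti-pRb Ser795 primary overnight at 4° C, HRP secondary, TMB. IC50 after no-substrate background subtraction.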

For a further series, the system named is BT474. The series is described as follows: Cytotoxicity assay (SRB), BT474. To be noted: Homo sapiens, BT-474, 144 h, read-out: In Vitro Cellular Activity IC50 BT474. In kind it is cell-based. Summed up:
(§2)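 Seeding: BT474 12000, HCT-116 4000, LoVo 6000, MCF-7 6000 cells/well; overnight attachment, 37 °C, 7% CO2. Drug exposure 3 d (BT474 6 d), RPMI 1640 + 5% FBS. Readout: TCA fix, 0.4% SRB, Tris solubilisation, A540.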

For another series, the target named is T2, cyclin E/CDK2 enzyme (Homo sapiens, UniProt P24941).
T2 construct: made in house; host or cells: Sf9 insect cells, recombinant baculovirus
The experiment in a line: CDK2 ELISA kinase assay (phospho-Rb ser 795 detection). Format: biochemical. Summed up: as §1

The next series deals with LoVo. The experiment in a line: Cytotoxicity assay (SRB), LoVo. To be noted: Homo sapiens, LoVo, 72 h, read-out: In Vitro Cellular Activity IC50 LOVO. Format: cell-based. An outline of the steps: as §2
Another series deals with T3, cyclin B/CDK1 enzyme (Homo sapiens, UniProt P06493).
T3 construct: purchased New England BioLabs; host or cells: Sf9 insect cells, recombinant baculovirus
T3 sequence (P06493 whole entry): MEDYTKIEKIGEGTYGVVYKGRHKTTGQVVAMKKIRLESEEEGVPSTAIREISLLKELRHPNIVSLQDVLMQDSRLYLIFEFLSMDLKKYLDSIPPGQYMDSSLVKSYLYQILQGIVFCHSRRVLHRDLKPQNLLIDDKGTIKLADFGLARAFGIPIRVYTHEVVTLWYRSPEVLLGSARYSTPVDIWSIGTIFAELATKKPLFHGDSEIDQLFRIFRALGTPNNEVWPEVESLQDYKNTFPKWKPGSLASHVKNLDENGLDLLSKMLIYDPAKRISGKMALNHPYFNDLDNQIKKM
T3 sequence (P14635 whole entry partner): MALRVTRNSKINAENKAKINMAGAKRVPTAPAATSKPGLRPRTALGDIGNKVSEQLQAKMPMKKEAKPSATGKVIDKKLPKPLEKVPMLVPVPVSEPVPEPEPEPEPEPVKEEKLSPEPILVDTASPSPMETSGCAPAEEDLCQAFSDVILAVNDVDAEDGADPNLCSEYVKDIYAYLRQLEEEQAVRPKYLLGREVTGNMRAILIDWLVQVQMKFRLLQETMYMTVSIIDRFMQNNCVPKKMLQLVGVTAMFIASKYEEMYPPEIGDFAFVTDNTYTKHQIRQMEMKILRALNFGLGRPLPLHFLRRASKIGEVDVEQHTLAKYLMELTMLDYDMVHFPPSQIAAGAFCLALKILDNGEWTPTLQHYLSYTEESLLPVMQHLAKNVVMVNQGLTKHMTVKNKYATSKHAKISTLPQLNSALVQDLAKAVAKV
The series is described as follows: CDK1 ELISA kinase assay (phospho-Rb ser 795 detection). Format: biochemical. Summed up: as §1

The test system of the next series is MCF-7. The series is described as follows: Cytotoxicity assay (SRB), MCF-7. Format: cell-based. To be noted: Homo sapiens, MCF7, 72 h, read-out: In Vitro Cellular Activity IC50 MCF-7. An outline of the steps:
as §2

For another series, the system named is HCT-116. The experiment in a line: Cytotoxicity assay (SRB), HCT-116. In kind it is cell-based. To be noted: Homo sapiens, HCT-116, 72 h, read-out: In Vitro Cellular Activity IC50 HCT116. An outline of the steps:
as §2

Setting [1] is: In Vitro Enzyme Assays, read-out: CDK4 IC50.
The mark [2] stands for this setting: In Vitro Enzyme Assays, read-out: CDK2 IC50.
[3] abbreviates: In Vitro Enzyme Assays, read-out: CDK1 IC50.
[4] abbreviates: In Vitro Enzyme Assay, cyclin E/CDK2, read-out: CDK2 IC50.

T1 sequence (P11802 whole entry, species assumed): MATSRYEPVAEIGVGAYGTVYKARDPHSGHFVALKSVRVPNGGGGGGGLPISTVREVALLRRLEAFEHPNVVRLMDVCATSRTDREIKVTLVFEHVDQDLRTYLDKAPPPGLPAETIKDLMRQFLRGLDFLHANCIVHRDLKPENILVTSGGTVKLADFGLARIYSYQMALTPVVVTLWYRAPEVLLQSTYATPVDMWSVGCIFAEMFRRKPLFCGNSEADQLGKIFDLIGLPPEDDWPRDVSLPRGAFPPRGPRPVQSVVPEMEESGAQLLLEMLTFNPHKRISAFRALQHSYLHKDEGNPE
T1 sequence (P24385 whole entry partner, species assumed): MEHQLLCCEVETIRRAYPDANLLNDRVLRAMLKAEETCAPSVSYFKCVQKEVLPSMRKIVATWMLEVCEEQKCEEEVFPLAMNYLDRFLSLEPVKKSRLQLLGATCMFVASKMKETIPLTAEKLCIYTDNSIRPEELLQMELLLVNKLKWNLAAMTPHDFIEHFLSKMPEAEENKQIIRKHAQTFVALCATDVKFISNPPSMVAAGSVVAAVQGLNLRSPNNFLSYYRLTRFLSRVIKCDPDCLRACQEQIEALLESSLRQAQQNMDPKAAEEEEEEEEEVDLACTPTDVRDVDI

`CC1CN(C)[C@H](C)CN1c1ccc(N/C=C2\C(=O)NC(=O)c3ccc(Br)cc32)cc1` (stereo in doubt) [Example 238, (4Z)-6-Bromo-4-[({4-[(2S,5R)-2,4,5-trimethylpiperazin-1-yl]phenyl}amino)methylene]-isoquinoline-1,3(2H,4H)-dione] gave a melting point of 184 to 185 °C. In addition, at cyclin D1/cdk 4 enzyme (setting [1]), the IC50 was determined as 4.8 µM. Also, in the series with BT474 (BT474 cells, SRB, 6 days), the IC50 amounted to 7400 nM. The IC50 on cyclin E/CDK2 enzyme (setting [2]) was above 50 µM. The IC50 with LoVo (LoVo cells, SRB, three days) turned out to be 4300 nM. In addition, the IC50 on cyclin B/CDK1 enzyme (setting [3]) is above 50 µM. Also, in the series with MCF-7 (MCF-7 cells, SRB, three days), the IC50 came out at 1000 nM. The IC50 with HCT-116 (HCT116 cells, SRB, three days) stood at 6700 nM.
In the case of `COc1cc2c(cc1OC)/C(=C/Nc1ccc(N3CCN(C)CC3)cc1)C(=O)NC2=O` [Example 37, (4Z)-6,7-Dimethoxy-4-({[4-(-methylpiperazin-1-yl)phenyl}amino)methylene] isoquinolin-1,3(2H,4H)-dione], the melting point is 273 to 274 °C. Besides, the IC50 at cyclin D1/cdk 4 enzyme (setting [1]) was determined as 14.8 µM. The IC50 on cyclin E/CDK2 enzyme (setting [2]) is above 50 µM. Further, at cyclin B/CDK1 enzyme (setting [3]), the IC50 was above 50 µM.
The compound `CC(=O)Nc1ccc2c(c1)/C(=C/Nc1ccc(CN3CCCCC3)cc1)C(=O)NC2=O` [Example 48] yielded a melting point above 320 °C. Further, the IC50 at cyclin E/CDK2 enzyme (setting [2]) came to 8.1 µM. Also, the 50% inhibitory concentration (IC50) on cyclin B/CDK1 enzyme (setting [3]) was above 50 µM.
As for `O=C1NC(=O)c2ccc(Br)cc2/C1=C/Nc1ccc(O)c(C(=O)O)c1` [Example 58, 5-{[(Z)-(6-Bromo-1,3-dioxo-2,3-dihydroisoquinolin-4(1H)-ylidene)methyl]amino}-2-hydroxybenzoic acid], the melting point lay in the range of 336 to 337 °C. For the same compound, the half-inhibitory concentration (IC50) on cyclin D1/cdk 4 enzyme (setting [1]) is 12.4 µM. For the same compound, the IC50 on cyclin E/CDK2 enzyme (setting [2]) is 19.4 µM. Besides, on cyclin B/CDK1 enzyme (setting [3]), the 50% inhibitory concentration (IC50) is 31.8 µM.
Compound `O=C1NC(=O)c2ccc(Br)cc2/C1=C/NCc1ccc(O)cc1` [Example 62] displayed a melting point of 296 to 297 °C. The IC50 at cyclin D1/cdk 4 enzyme (setting [1]) came out at 31.1 µM. Further, on cyclin E/CDK2 enzyme (setting [2]), the IC50 stood at 4.5 µM. Besides, the IC50 at cyclin B/CDK1 enzyme (setting [3]) is above 50 µM.
On to `CN1CCN(c2ccc(N/C=C3\C(=O)NC(=O)c4ccc(C(=O)N(C)C)cc43)cc2)CC1` [Example 65, (4Z)-N,N-Dimethyl-4-({[4-(4-methylpiperazin-1-yl)phenyl]amino}methylene)-1,3-dioxo-1,2,3,4-tetrahydroisoquinoline-6-carboxamide], for which the melting point was above 300 °C. Moreover, the IC50 on cyclin D1/cdk 4 enzyme (setting [1]) came out at 41 µM. Also, at cyclin E/CDK2 enzyme (setting [2]), the IC50 was 47 µM. Also, on cyclin B/CDK1 enzyme (setting [3]), the IC50 was above 50 µM.
The compound `CCN(CC)C(=O)Oc1cc(CN/C=C2\C(=O)NC(=O)c3ccc(I)cc32)ccc1OC` [Example 99, 5-({[(Z)-(6-Iodo-1,3-dioxo-2,3-dihydroisoquinolin-4(1H)-ylidene)methyl]amino}methyl)-2-methoxyphenyl diethylcarbamate] came in with a melting point of 128 to 130 °C. This compound registered an IC50 on cyclin D1/cdk 4 enzyme (CDK4 IC50, In Vitro Enzyme Assays) of 1.4 µM. Also, the half-inhibitory concentration (IC50) against cyclin E/CDK2 enzyme (CDK2 IC50, In Vitro Enzyme Assays) was above 50 µM. The same compound registered an IC50 at cyclin B/CDK1 enzyme (CDK1 IC50, In Vitro Enzyme Assays) above 50 µM.
Turning to `O=C1NC(=O)c2ccc(Br)cc2C1=CNc1ccc(-c2c[nH]cn2)cc1` [Example 164, 6-Bromo-4-{[4-(1H-imidazol-4-yl)-phenylamino]-methylene}-4H-isoquinolin-1,3-dione], the melting point was > 300 °C (dec.). The IC50 at cyclin D1/cdk 4 enzyme (setting [1]) stood at 43.4 µM. The IC50 at cyclin E/CDK2 enzyme (setting [2]) was 11 µM. For the same compound, the IC50 on cyclin B/CDK1 enzyme (setting [3]) is above 50 µM.
For `CCCOc1ccc(CN/C=C2\C(=O)NC(=O)c3ccc(NC(=O)c4ccco4)cc32)cc1O` [Example 197], in that order: 233 to 234 °C, 12.3 µM, above 50 µM and above 50 µM.
In the case of `Nc1ccc(CN/C=C2\C(=O)NC(=O)c3ccc(Br)cc32)cc1O` [Example 227, (4Z)-4-{[(4-Amino-3-hydroxybenzyl)amino]methylene}-6-bromoisoquinoline-1,3(2H,4H)-dione], the melting point was in the range of 245 to 246 °C. Also, on cyclin D1/cdk 4 enzyme (setting [1]), the IC50 worked out at 0.08 µM. Besides, the IC50 on cyclin E/CDK2 enzyme (setting [2]) was 6.7 µM. Besides, the IC50 in the series with LoVo (LoVo cells, SRB, three days) turned out to be 37000 nM. For the same compound, the IC50 on cyclin B/CDK1 enzyme (setting [3]) is above 50 µM. Besides, in the series on MCF-7 (MCF-7 cells, SRB, three days), the IC50 was above 50000 nM. The IC50 with HCT-116 (HCT116 cells, SRB, three days) was 44000 nM.
`O=C1NC(=O)c2ccc(-c3ccc(F)cc3)cc2/C1=C/Nc1ccc(CN2CCCCC2)cc1` [Example 251, (4Z)-6-(4-Fluorophenyl)-4-({[4-(piperidin-1-′ylmethyl)phenyl]amino}methylene)isoquinoline-1,3(2H,4H)-dione]: the melting point lay in the range of 195 to 196 °C. Moreover, the IC50 on cyclin D1/cdk 4 enzyme (setting [1]) is 0.31 µM. For the same compound, the IC50 in the series on BT474 (BT474 cells, SRB, 6 days) turned out to be 1100 nM. In the series on LoVo (LoVo cells, SRB, three days), the IC50 is 1700 nM. Also, the IC50 at cyclin B/CDK1 enzyme (setting [3]) was above 50 µM. Moreover, in the series on MCF-7 (MCF-7 cells, SRB, three days), the IC50 was found to be 550 nM. In the series with HCT-116 (HCT116 cells, SRB, three days), the IC50 is 1000 nM.
On to `CC(N)(C(=O)O)c1ccc(NC=C2C(=O)NC(=O)c3ccc(Br)cc32)cc1` (centres unmarked) [Example 277, 2-Amino-2-{4-[(6-bromo-1,3-dioxo-2,3-dihydro-1H-isoquinolin-4-ylidenemethyl)-amino]-phenyl}-propionic acid], for which the melting point is 250 to 253 °C. Besides, the IC50 at cyclin D1/cdk 4 enzyme (setting [1]) turned out to be 35.5 µM. Further, at cyclin E/CDK2 enzyme (setting [2]), the IC50 turned out to be 39.7 µM. The IC50 at cyclin B/CDK1 enzyme (setting [3]) was above 50 µM.
`O=C(O)CCCN/C=C1\C(=O)NC(=O)c2ccc(Br)cc21` [Example 314, (Z)-4-((6-Bromo-1,3-dioxo-2,3-dihydroisoquinolin-4(1H)-ylidene)methylamino)butanoic acid]: the melting point was 260 to 262 °C (dec.). Also, the 50% inhibitory concentration (IC50) on cyclin D1/cdk 4 enzyme (setting [1]) was 1.5 µM. Moreover, at cyclin E/CDK2 enzyme (setting [2]), the 50% inhibitory concentration (IC50) is 37.1 µM. For the same compound, the IC50 at cyclin B/CDK1 enzyme (setting [3]) was above 50 µM.
For `O=C(O)CCCN/C=C1\C(=O)NC(=O)c2ccc(-n3cccc3)cc21` [Example 315, (Z)-4-((1,3-Dioxo-6-(1H-pyrrol-1-yl)-2,3-dihydroisoquinolin-4(1H)-ylidene)methylamino)butanoic acid], in that order: 230 to 240 °C (dec.), 0.19 µM, 31 µM and 43.4 µM.
Consider `CN1CCN(c2ccc(N/C=C3\C(=O)NC(=O)c4ccc(-c5ccoc5)cc43)nc2)CC1` [Example 443, (4Z)-6-(3-Furyl)-4-({[5-(4-methylpiperazin-1-yl)pyridin-2-yl]amino}methylene)isoquinoline-1,3(2H,4H)-dione], for which the melting point fell in the range of 262 to 263 °C. Also, the IC50 at cyclin D1/cdk 4 enzyme (setting [1]) was determined as 0.13 µM. For the same compound, the IC50 with BT474 (BT474 cells, 6 days, SRB) is 650 nM. Moreover, the IC50 at cyclin E/CDK2 enzyme (setting [2]) was above 50 µM. The IC50 in the series with LoVo (LoVo cells, 3 days, SRB) was 850 nM. Moreover, the IC50 at cyclin B/CDK1 enzyme (setting [3]) was above 50 µM.
Consider `CC(C)(C)c1ccc2c(c1)/C(=C/NCc1cc(O)c(-c3ccoc3)cn1)C(=O)NC2=O` [Example 532, 6-tert-Butyl-4-{[(5-furan-3-yl-4-hydroxy-pyridin-2-ylmethyl)-amino]-methylene}-4H-isoquinoline-1,3-dione], for which the melting point is 215 to 230 °C (dec.). Further, the IC50 in the series with BT474 amounted to 100 nM. In addition, the IC50 on cyclin E/CDK2 enzyme (setting [4]) was found to be 1.9 µM. Moreover, the IC50 with LoVo is 270 nM. The IC50 in the series on MCF-7 was determined as 1400 nM. Besides, in the series with HCT-116, the IC50 amounted to 480 nM.
With `O=C1NC(=O)c2ccc(C3CCCC3)cc2/C1=C/NCc1cc(O)c(-c2ccoc2)cn1` [Example 537], the melting point is 279 to 283 °C (dec.). Also, the IC50 in the series with BT474 is 130 nM. For the same compound, on cyclin E/CDK2 enzyme (setting [4]), the IC50 was 1.3 µM. In the series on LoVo, the IC50 amounted to 300 nM. For the same compound, the IC50 with MCF-7 was determined as 830 nM. In addition, the IC50 in the series with HCT-116 is 810 nM.
